Assay results published in patent US9963453B2, “Substituted pyrazino[1,2-a]indoles as sigma receptor activity modulators” (LABORATORIOS DEL DR. ESTEVE S.A., priority 2013, dated 2018).
Where a name gives a salt, the structure may show the parent alone.

Molecular target: human sigma 1 receptor (Homo sapiens (Human), UniProt Q99720)
Experiment: Human Sigma 1 Receptor Radioligand Assay
Assay type: binding
Conditions: transfected HEK-293 membranes, 5 nM [3H](+)-pentazocine as radioligand, 37° C., 120 minutes
Method: Human Sigma 1 Receptor Radioligand Assay
To investigate binding properties of sigma 1 receptor ligands to human sigma 1 receptor, transfected HEK-293 membranes and [^3H](+)-pentazocine (Perkin Elmer, NET-1056), as the radioligand, were used. The assay was carried out with 7 μg of membrane suspension, 5 nM of [^3H](+)-pentazocine in either absence or presence of either buffer or 10 μM Haloperidol for total and non-specific binding, respectively. Binding buffer contained Tris-HCl 50 mM at pH 8. Plates were incubated at 37° C. for 120 minutes. After the incubation period, the reaction mix was then transferred to MultiScreen HTS, FC plates (Millipore), filtered and plates were washed 3 times with ice-cold 10 mM TrisHCL (pH7.4). Filters were dried and counted at approximately 40% efficiency in a MicroBeta scintillation counter (Perkin-Elmer) using EcoScint liquid scintillation cocktail.

Sequence of human sigma 1 receptor (Q99720 whole entry): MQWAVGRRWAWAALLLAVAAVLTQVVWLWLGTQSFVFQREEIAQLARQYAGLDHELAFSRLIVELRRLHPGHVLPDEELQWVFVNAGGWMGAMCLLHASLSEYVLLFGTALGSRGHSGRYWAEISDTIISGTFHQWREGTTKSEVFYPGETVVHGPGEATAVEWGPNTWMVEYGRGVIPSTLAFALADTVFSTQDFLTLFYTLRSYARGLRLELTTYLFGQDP

| SMILES | Ki |
| --- | --- |
| Cc1ccc2c(c1)cc1n2CCN(C(=O)C(C)N2CCCCCC2)C1 (stereo not drawn) [Example 13, 2-(azepan-1-yl)-1-(8-methyl-3,4-dihydropyrazino[1,2-a]indol-2(1H)-yl)propan-1-one] | 69.7 nM |
| CC(C(=O)N1CCn2c(cc3ccccc32)C1)N1CCN(C2CCCCC2)CC1 (stereo not drawn) [Example 24, 2-(4-cyclohexylpiperazin-1-yl)-1-(3,4-dihydropyrazino[1,2-a]indol-2(1H)-yl)propan-1-one] | 37.6 nM |
| Cc1c2n(c3ccccc13)CCN(C(=O)CN1CCCCC1)C2 [Example 14, 1-(10-methyl-3,4-dihydropyrazino[1,2-a]indol-2(1H)-yl)-2-(piperidin-1-yl)ethanone] | 24 nM |

Now from value to molecule:

| Ki | SMILES |
| --- | --- |
| 142 nM | C[C@@H](CN1CCN(C)CC1)C(=O)N1CCn2c(cc3ccccc32)C1 [Example 48, (S)-1-(3,4-dihydropyrazino[1,2-a]indol-2(1H)-yl)-2-methyl-3-(4-methylpiperazin-1-yl)propan-1-one] |
| 142 nM | C[C@@H](C(=O)N1CCN2c3ccccc3C[C@@H]2C1)N1CCN(C2CCCCC2)CC1 [Example 52, (S)-2-(4-cyclohexylpiperazin-1-yl)-1-((R)-3,4,10,10a-tetrahydropyrazino[1,2-a]indol-2(1H)-yl)propan-1-one] |

Same assay, conditions: transfected HEK-293 membranes, 5 nM [3H](+)-pentazocine as radioligand, 37° C., 120 minutes; maleate

| Ki | SMILES |
| --- | --- |
| 29.6 nM | CC(C(=O)N1CCn2c(cc3ccccc32)C1)N1CCCCCC1 (stereo not drawn) [Example 8, 2-(azepan-1-yl)-1-(3,4-dihydropyrazino[1,2-a]indol-2(1H)-yl)propan-1-one maleate] |
